In assay [1] the test system is scutellum of barley immature embryo. As to the kind of experiment: Gene introduction efficiency (GUS expression index) after coculture with Agrobacterium. The class given is cell-based, barley (variety: Golden Promise). On the procedure:
Immature embryos (size: 1.5 to 2.0 mm) of barley (variety: Golden Promise) from which embryonic axes were removed were aseptically collected and were immersed in 1 mL of sterilized water in a 2-mL microtube. In order to enhance the gene introduction efficiency, the tube containing the immature embryos was heated in a water bath at 43° C. for 5 minutes. An Agrobacterium strain EHA101 having a hygromycin resistance gene (pIG121Hm) (Non-Patent Literature 2) was suspended in an MG/L liquid medium (Non-Patent Literature 28) containing 100 μM acetosyringone and was shake-cultured (180 rpm) at 28° C. overnight (about 20 hours) to prepare an inoculation source. The bacterial concentration was adjusted to an O.D. of 1.0 (660 nm). The inoculation source was added to the thermal-treated immature embryos, and a reduced pressure treatment was performed with a vacuum pump at 500 mbar for 10 minutes. The immature embryos were washed once with a callus induction liquid medium, CIMT (Tingay et al., 1997: Non-Patent Literature 5) not containing any plant growth regulator (hereinafter, antiauxins, cytokinins, and auxins are collectively referred to as plant growth regulators). The immature embryos inoculated with Agrobacterium were transplanted onto a barley coculture medium (1/10 diluted MS inorganic salts and MS vitamins, 10 g/L of glucose, 0.5 g/L of MES, 5 μM AgNO3, and 5 μM CuSO4, pH 5.8; and 8 g/L of agarose) containing 100 μM acetosyringone in such a manner that the scutellum side faces upward. The test was performed using two plant growth regulators in four test groups of the coculture medium. That is, the four test groups are a hormone-free test group not containing any plant growth regulator, a test group of 5 μM TIBA (antiauxin), a test group of 1.13 μM dicamba (auxin), and a test group of 11.3 μM dicamba (auxin).
Immature embryos cultured at 25° C. in the dark for 24 hours were transplanted in a CIMT resting medium (Tingay et al., 1997: Non-Patent Literature 5) containing 0.5 mg/L of 2,4-D and 1.25 mg/L of CuSO4.5H2O. The resting medium was added with 250 mg/L of carbenicillin and 100 mg/T, of cefotaxime for Agrobacterium eradication. […] The expression of the GUS gene in the scutellum region of each immature embryo was evaluated in seven grades: 87.5 (expressed in 75% or more of scutellum), 62.5 (expressed in 50% or more and less than 75% of scutellum), 37.5 (expressed in 25% or more and less than 50% of scutellum), 17.5 (expressed in 10% or more and less than 25% of scutellum), […] (expressed in 1% or more and less than 10% of scutellum), 0.5 (expressed in exceeding 0% and less than 1% of scutellum), and 0 (no expression), and the average value thereof was expressed by a numerical value as the GUS expression index. […]

The test system of assay [2] is barley immature embryos. The experiment in a line: Callus formation from cocultured immature embryos. The class given is cell-based. The following applies: 0.25 mg/L (1.13 μM) in 1/10 diluted MS coculture medium, no centrifugation or pressurization.
Assay [3] relates to barley immature embryos. The experiment in a line: Transformation efficiency per immature embryo (hygromycin-resistant and GUS-positive regenerated plants). It is filed as cell-based, barley (variety: Golden Promise). The protocol:
The preparation of materials and the inoculation with Agrobacterium were performed as in Example 1. The thermal treatment was also similarly performed.
Test group (1): Immature embryos inoculated with Agrobacterium were placed on the coculture medium described in Harwood et al. (2008: Non-Patent Literature 11) in such a manner that the scutellum faces downward. The coculture was performed at 25° C. in the dark for 3 days. In this test group, the centrifugation treatment was not performed.
Test group (2): Isolated immature embryos were transferred in a 2-mL microtube containing 1 mL of sterilized water and were centrifuged at 25° C. at 15000 rpm (20000×g) for 10 minutes. Subsequently, coculture was performed as in test group (1).
Test group (3): Immature embryos cocultured as in test group (1) were transferred in a 2-mL microtube containing 1 mL of sterilized water and were centrifuged at 25° C. at 15000 rpm (20000×g) for 10 minutes.
Test group (4): Immature embryos inoculated with Agrobacterium were transferred onto a barley coculture medium (1/10 diluted MS inorganic salts and MS vitamins, 10 g/L of glucose, 5 μM TIBA, 0.5 g/L of MES, 5 μM AgNO3, and 5 μM CuSO4, pH 5.8; and 8 g/L of agarose) containing 100 μM acetosyringone in such a manner that the scutellum side faces upward. The immature embryos were cultured at 25° C. in the dark for 24 hours. In this test group, the centrifugation treatment was not performed.
Test group (5): Isolated immature embryos were transferred in a 2-mL microtube containing 1 mL of sterilized water and were centrifuged at 25° C. at 15000 rpm (20000×g) for 10 minutes. Subsequently, coculture was performed as in test group (4).
Test group (6): Immature embryos cocultured as in test group (4) were transferred in a 2-mL microtube containing 1 mL of sterilized water and were centrifuged at 25° C. at 15000 rpm (20000×g) for 10 minutes.
That is, test groups (1), (2), and (3) used a coculture medium containing an auxin, dicamba, and undiluted MS inorganic salts, whereas test groups (4), (5), and (6) used a coculture medium containing an antiauxin, TIBA, and 1/10 diluted MS inorganic salts. Test group (7) used a hormone-free coculture medium containing 1/10 diluted MS inorganic salts.
The immature embryos prepared in test groups (1) to (7) were each transplanted in a CIMT resting medium (Tingay et al., 1997: Non-Patent Literature 5) containing 0.5 mg/L of 2,4-D, but not containing any selective agents. The resting medium was added with 250 mg/L of carbenicillin and 100 mg/L of cefotaxime for Agrobacterium eradication. The immature embryos were cultured at 25° C. in the dark for 7 days and were each divided into four sections. The divided sections were transplanted in a CIMT resting medium (Tingay et al., 1997: Non-Patent Literature 5) containing 0.2 mg/L of 2,4-D and 5 μM CuSO4, but not containing any selective agent. After the resting culture at 25° C. in the dark for 10 days, each four-divided immature embryo section was further divided into three to six subsections (i.e., one immature embryo was divided into 12 to 24 sections). The divided subsections were placed on a CIMT selection medium (Tingay et al., 1997: Non-Patent Literature 5) containing 0.1 mg/L of 2,4-D, 1.5 μM CuSO4, and 75 mg/L of hygromycin and were cultured at 25° C. in the dark for 10 days. Subsequently, subsections having cell clump supposed to be hygromycin resistance were subcultured in a selection medium having the same composition and were cultured at 25° C. in the dark for 10 days.
One hygromycin resistance callus for each divided section was placed on a transition (regeneration preculture) medium (Harwood et al. (2008: Non-Patent Literature 11)) not containing hygromycin and was cultured at 25° C. in the dark for about 2 weeks.

In assay [4] the test system is barley immature embryos. The experiment in a line: Hygromycin resistance callus formation after secondary selection. It is filed as cell-based, barley (variety: Golden Promise). Particulars: Example 4, 5 μM TIBA in coculture medium. On the procedure: The materials, the method of inoculation with Agrobacterium, the thermal treatment conditions, the coculture step, the centrifugation treatment conditions, and the resting step were the same as those in Example 3. The coculture medium contained an antiauxin: 5 μM TIBA. The scutellum was divided into four sections, and the resting step was further continued for 10 days. After the resting step, each divided scutellum section was further divided into 4 subsections (i.e., one immature embryo was divided into 16 sections). The divided subsections were transplanted in a CIMT selection medium (Tingay et al., 1997: Non-Patent Literature 5) containing 50 mg/L of hygromycin B and 1.25 mg/L of CuSO4.5H2O. The selection medium was added with 250 mg/L of carbenicillin for Agrobacterium eradication. Scutellum subsections were sorted by the original immature embryo and placed on the medium. After the culture at 25° C. in the dark for 2 weeks, only compact calli were selected by removing sponge-like calli containing a large amount of moisture. […] After the culture, hygromycin resistance compact calli propagated on the selection medium were counted. Note that even when a plurality of resistance calli were formed from scutellum subsections derived from a single immature embryo, only one of the resistance calli was counted as a hygromycin resistance callus for each immature embryo.

Molecules are shown by their SMILES.

As for `O=C(O)COc1ccc(Cl)cc1Cl` [2,4-D, 2,4-dichlorophenoxyacetic acid], in assay [1] (Example 5, FIG. 3, 1.13 μM in 1/10 diluted MS coculture medium), the “gene introduction efficiency relative to hormone-free coculture medium” value is recorded as “about one-sixth that of the hormone-free coculture medium”. The “gene introduction efficiency (GUS expression index)” value in assay [1] (Example 5, FIG. 3, 11.3 μM in 1/10 diluted MS coculture medium) is “lowest”. In the assay on barley immature embryos [2], the “callus formation from cocultured immature embryos” value is listed as “almost no callus was formed”.
Take `COc1c(Cl)ccc(Cl)c1C(=O)O` [dicamba, 3,6-dichloro-2-methoxybenzoic acid]: the “transformation efficiency per immature embryo” value in the assay on barley immature embryos [3] (test group 1: conventional coculture medium with dicamba, undiluted MS, coculture 3 days, without centrifugation treatment) was 30%; with barley immature embryos [3] (test group 2: conventional coculture medium with dicamba, undiluted MS, centrifugation treatment before inoculation), “no transformant was obtained at all”; with barley immature embryos [3] (test group 3: conventional coculture medium with dicamba, undiluted MS, centrifugation treatment after coculture), 20%. In addition, in assay [1] (Example 1, FIG. 1, 11.3 μM in 1/10 diluted MS coculture medium, coculture 24 hours), the “gene introduction efficiency (GUS expression index)” value was “lowest”.
Take `O=C(O)c1cc(I)cc(I)c1I` [TIBA, 2,3,5-triiodobenzoic acid]: the “transformation efficiency per immature embryo” value with barley immature embryos [3] (test group 4: 5 μM TIBA, 1/10 diluted MS coculture medium, 24 hours, no centrifugation treatment) is recorded as “no transformant was obtained at all”; with barley immature embryos [3] (test group 5: 5 μM TIBA, 1/10 diluted MS coculture medium, centrifugation treatment before inoculation with Agrobacterium), 90%; in the assay with barley immature embryos [3] (test group 6: 5 μM TIBA, 1/10 diluted MS coculture medium, centrifugation treatment after coculture), 100%. For the same compound, the “gene introduction efficiency (GUS expression index)” value in assay [1] (Example 1, FIG. 1, 5 μM in 1/10 diluted MS coculture medium, coculture 24 hours, versus plant growth regulator-free group) was “notably enhanced”. In addition, the “frequency of hygromycin resistance callus formation from immature embryos” value in the assay with barley immature embryos [4] (with centrifugation treatment after coculture, after secondary selection) was 80%; with barley immature embryos [4] (without centrifugation treatment), “no callus survived in the selection medium”.
